We go through one compound from article PMC6535779, “A Specific, Glycomimetic Langerin Ligand for Human Langerhans Cell Targeting” (ACS Central Science, 2019).

Structures are written as SMILES.

In test [1] the target is T1, Langerin extracellular domain (ECD) (Homo sapiens, UniProt Q9UJ71).
T1 construct: the trimeric Langerin extracellular domain (ECD) was expressed insolubly in E; made in house
Put plainly: 19F R2-filtered NMR reporter displacement assay with Langerin. The test is classed as binding. As to conditions: calculated utilizing the KI value determined for 21. The procedure:
(§1) Receptor Expression and Purification
General remarks. Codon-optimized genes for the expression of Langerin and DC-SIGN in E. coli were purchased from GenScript and Life Technologies, respectively. All growth media or chemicals used for receptor expression and purification were purchased from Carl Roth if not stated otherwise.
Langerin extracellular domain. Expression and purification were conducted as previously published14. Briefly, the trimeric Langerin extracellular domain (ECD) was expressed insolubly in E. coli BL21* (DE3) (Invitrogen). Following enzymatic cell lysis, inclusion bodies were harvested and subsequently solubilized. The sample was centrifuged and the Langerin ECD was refolded overnight via rapid dilution. Next, the sample was dialyzed overnight, centrifuged and purified via mannan-agarose affinity chromatography (Sigma Aldrich). For 19F R2-filtered NMR and lipid-enzyme-linked lectin assay (Lipid-ELLA) experiments, the buffer was exchanged to 25 mM Tris with 150 mM NaCl and 5 mM CaCl2 at pH 7.8 using 7 kDa size-exclusion desalting columns (Thermo Scientific). For […]
D2O, 150 mM NaCl and 5 mM CaCl2 at pH 7. The concentration of Langerin ECD was determined via UV spectroscopy (A280, 0.1% = 2.45). Purity and monodispersity of Langerin ECD samples were analyzed via SDS PAGE and DLS. […]
General remarks. 19F R2-filtered NMR experiments were conducted on a PremiumCompact 600 MHz spectrometer (Agilent). Spectra were processed in MestReNova and data analysis was performed with OriginPro 13, 15. Experiments with the Langerin ECD were performed at a receptor concentration of 50 μM in 25 mM Tris with 10% D2O, 150 mM NaCl and 5 mM CaCl2 at pH 7.8 and 25° C. […]
10% D2O, 150 mM NaCl and 5 mM CaCl2 at pH 7.0 and 25°C. TFA served as an internal reference at a concentration of 50 μM. Apparent relaxation rates R2,obs for the reporter ligand were determined using the CPMG pulse sequence as previously published3-5. […]
KI determination. KI values were determined as previously published for Langerin3. Briefly, titration experiments were conducted at a concentration of 0.1 mM of reporter ligand 24 at five competitor concentrations [I]T. Samples were prepared via serial dilution. For the acids GlcNS, GlcNAc-6-OS and GlcNS-6-OS the pH values were monitored and adjusted to 7.8 if necessary.
General remarks. 15N HSQC NMR experiments were conducted on an Ascend 700 MHz spectrometer (Bruker)16. Spectra were processed in NMRPipe17. Data analysis was performed using CCPN Analysis, MatLab and OriginPro15, 18-19. Experiments with the Langerin CRD were performed at a receptor concentration of 100 μM in 25 mM HEPES with 10% D 2O, 150 mM NaCl and 5 mM CaCl2 at pH 7.8 and 25° C. DSS-d6 served as an internal reference at a concentration of 100 μM. Spectra were referenced via the internal spectrometer reference. Spectra were acquired with 128 increments and 32 scans per increments for 150 μl samples in 3 mm sample tubes. The relaxation delay d1 was set to 1.4 s and the acquisition time tacq was set to 100 ms. The W5 Watergate pulse sequence was used for solvent suppression20. The used resonance assignment for the Langerin CRD has been published […]
KD determination. KD values were determined in titration experiments at six ligand concentrations [L]T. Samples were prepared via serial dilution. Chemical shift perturbations CSPs for Langerin CRD resonances in the fast or fast-to-intermediate exchange regime observed upon titration with ligand were calculated via Equation 121.

A further test addresses T2, DC-SIGN CRD (Homo sapiens, UniProt Q9NNX6).
T2 construct: with the DC-SIGN CRD were performed at a receptor concentration of 50 μM; made in house
T2 sequence (Q9NNX6 263-378 limits assumed): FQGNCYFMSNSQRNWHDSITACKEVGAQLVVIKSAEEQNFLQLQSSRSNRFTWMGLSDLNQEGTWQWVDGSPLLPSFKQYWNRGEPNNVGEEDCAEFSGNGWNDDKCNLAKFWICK
Description: 19F R2-filtered NMR reporter displacement assay with DC-SIGN. The test is classed as binding.
Text: Figure S7. 19F R2-filtered NMR assay development with DC-SIGN. […]
substantial line broadeni ng. This phenomenon was utilized to develop the 19F R2-filtered NMR reporter displacement assay following the procedure previously published for Langerin 3. The spectrum in absence of DC -SIGN is processed with an exponential apodization function at 1.8 Hz. b. The interaction between 24 and DC-SIGN was quantified via the transversal relaxation rate R2,obs using the CPMG pulse sequence4-5. Representative decay curves in the presence of DC-SIGN are shown. c. The Ca2+-dependency of the interaction was validated via addition of EDTA. The R2,obs value in absence of DC-SIGN was determined from four independent experiments. The standard error for the experiments in presence of DC-SIGN and EDTA is derived directly from the fitting procedure. d. Relaxation dispersion experiments for 24 in presence of DC-SIGN indicate at negligible exchange contribution R2,ex at a νCPMG value of 500 Hz. In contrast to Langerin, a considerable exchange contribution is observed a lower νCPMG values. e. A representative binding isotherm for the affinity determination for 24 is shown. The KD value was determined from three independent titrations. The obtained K D and additional parameters from the fitting procedure are given in Tab le S3.
(1 picture or pasted object on this page, not shown here)
as §1
General remarks. Codon-optimized genes for the expression of Langerin and DC-SIGN in E. coli were purchased from GenScript and Life Technologies, respectively. All growth media or chemicals used for receptor expression and purification were purchased from Carl Roth if not stated otherwise. […]
Langerin and DC-SIGN carbohydrate recognition domain. Expression and purification were conducted as previously published14. Briefly, the monomeric 15N-labeled Langerin and DC-SIGN carbohydrate recognition domains (CRDs) were expressed insolubly in E. coli BL21* (DE3) (Invitrogen). Following enzymatic cell lysis, inclusion bodies were harvested and subsequently solubilized. The sample was centrifuged and the Langerin and DC-SIGN CRDs were refolded overnight via rapid dilution. Next, the sample was dialyzed overnight, centrifuged and purified via StrepTactin affinity chromatography (Iba). After an additional dialysis step overnight, the sample was centrifuged and the buffer was exchanged to 25 mM HEPES with 150 mM NaCl at pH 7.0 using 7 kDa size-exclusion desalting columns (Thermo Scientific) for 19F R2-filtered and 15N HSQC NMR experiments. The concentration of Langerin and DC -SIGN CRDs was determined via UV spectroscopy (A280, 0.1% = 3.19 and A280, 0.1% = 2.98). Purity and monodispersity of Langerin and DC - SIGN CRD samples were analyzed via SDS PAGE and DLS.
General remarks. 19F R2-filtered NMR experiments were conducted on a PremiumCompact 600 MHz spectrometer (Agilent). Spectra were processed in MestReNova and data analysis was performed with OriginPro 13, 15. Experiments with the Langerin ECD were performed at a receptor concentration of 50 μM in 25 mM Tris with 10% D2O, 150 mM NaCl and 5 mM CaCl2 at pH 7.8 and 25° C. Experiments […]
with the DC-SIGN CRD were performed at a receptor concentration of 50 μM in 25 mM HEPES with 10% D2O, 150 mM NaCl and 5 mM CaCl2 at pH 7.0 and 25°C. TFA served as an internal reference at a concentration of 50 μM. Apparent relaxation rates R2,obs for the reporter ligand were determined using the CPMG pulse sequence as previously published3-5.
Assay development for DC-SIGN. The 19F R2-filtered NMR reporter displacement assay for DC-SIGN was developed following the procedure previously published for Langerin3. Briefly, the KD value and the relaxation rate in bound state R2,b were determined at five concentrations [L]T of reporter ligand 24 in three independent titration experiments. Samples were prepared via serial dilution. The addition of 10 mM EDTA served to validate the Ca2+-dependency of the interaction between DC-SIGN and the reporter ligand. […]

Test [2] has as its target T1, Langerin extracellular domain (ECD). On the set-up: method as in PMID 27458873. Conditions: 19F R2-filtered NMR; previously published value; cited from earlier work.
The next test concerns the target T3, Langerin CRD (Homo sapiens, UniProt Q9UJ71).
T3 construct: Experiments with the Langerin CRD were performed at; made in house
On the set-up: method as in PMID 27458873. Conditions: previously published value; cited from earlier work.

T1 sequence (Q9UJ71 65-328 limits assumed): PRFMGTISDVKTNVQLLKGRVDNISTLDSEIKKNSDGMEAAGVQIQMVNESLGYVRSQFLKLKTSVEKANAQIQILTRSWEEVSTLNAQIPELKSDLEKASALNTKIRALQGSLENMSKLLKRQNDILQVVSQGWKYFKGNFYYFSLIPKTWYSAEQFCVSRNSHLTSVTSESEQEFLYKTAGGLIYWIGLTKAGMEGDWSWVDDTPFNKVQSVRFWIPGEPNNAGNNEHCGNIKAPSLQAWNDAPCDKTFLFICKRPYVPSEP
T3 sequence (Q9UJ71 202-320 limits assumed): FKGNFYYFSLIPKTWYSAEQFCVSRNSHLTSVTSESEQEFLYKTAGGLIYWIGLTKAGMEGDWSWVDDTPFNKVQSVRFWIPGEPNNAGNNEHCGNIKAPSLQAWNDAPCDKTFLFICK

Take `OC[C@H]1OC(O)[C@@H](O)[C@@H](O)[C@@H]1O` (some centres unmarked) [Man, mannose]: the “Relative potency, Langerin” value in test [1] is on record as 2.2. For the same compound, the Ki was 3 ± 0.3 mM on DC-SIGN CRD (19F R2-filtered NMR, DC-SIGN CRD, pH 7.0, 25 °C) and 4.5 ± 0.5 mM in test [2]. The same compound came in with a specificity on DC-SIGN CRD (Table 1, Langerin against DC-SIGN, from KI values) of 0.67. In addition, on Langerin CRD, the Kd is 6.5 ± 0.2 mM.

The term Ki denotes a dissociation constant, usually derived from enzyme kinetics or from competition with a known ligand. In general, Kd refers to the equilibrium constant for the complex coming apart.
